{"source": "patent US8198273B2", "about": "“Compounds and methods for kinase modulation, and indications therefor” (Plexxikon Inc., priority 2009, dated 2012)", "key": {"[1]": {"tested_on": "COLO205 colon adenocarcinoma cells (B-Raf V600E)", "experiment": "COLO205 cell growth inhibition (ATPlite)", "format": "cell-based", "conditions": "Homo sapiens, COLO 205, 72 h; COLO205, 3 days incubation", "procedure": "(§1) Compounds are assessed in a variety of cell based assays. For example human cell lines with B-Raf V600E mutation (A375 melanoma, SKMEL3 melanoma, and COL0205 colon adenocarcinoma), as well as tumorigenic cell lines with wild-type B-RAF (SW620 colon adenocarcinoma) or with Ras mutations (SKMEL2 melanoma and IPC298 melanoma). Similar assays may be used to assess additional tumorigenic cell lines with Ras mutations, including, but not limited to, M202, M207, M243, M244, M296, S117, HCT116, HCT15, DLD1, MiaPaCa, A549, NCI-H23, NCI-H460, HOP62, MDA-MB231, Hs-578T, HL60, MOLT-4, and CCRF-CEM.\n(§2) On day 1, cells are counted, then centrifuged in a conical tube for 5 minutes at 1000 rpm. The supernatant is removed and cells are re-suspended as follows: • SW620 (ATCC catalog #CCL-27): resuspend in Leibovitz's L-15 medium, 2 mM L-glutamine, 10% fetal bovine serum to 6×10^4 cells/mL. • A375 (ATCC catalog #CRL-1619): resuspend in Dulbecco's modified Eagle's medium, 4 mM L-glutamine, 4.5 g/L D-glucose, 10% fetal bovine serum to 6×10^4 cells/mL. • COL0205 (ATCC catalog #CCL-222): resuspend in RPMI 1640, 2 mM L-glutamine, 1.5 g/L sodium bicarbonate, 4.5 g/L D-glucose, 10 mM HEPES, 1.0 mM sodium pyruvate, 10% fetal bovine serum to 6×10^4 cells/mL. • SKMEL2 (ATCC catalog #HTB-68): resuspend in Minimum Eagle essential medium, 2 mM L-glutamine, 1.5 g/L sodium bicarbonate, 0.1 mM non-essential amino acids, 1.0 mM sodium pyruvate, 10% fetal bovine serum to 6×10^4 cells/mL. • SKMEL3 (ATCC catalog #HTB-69): resuspend in McCoy's 5A medium, 1.5 mM L-glutamine, 15% fetal bovine serum to 6×10^4 cells/mL. • IPC298 (DSMZ catalog #ACC 251): resuspend in RPMI 1640, 2 mM L-glutamine, 10% fetal bovine serum to 6×10^4 cells/mL.\n(§3) The cells are plated, 50 μL in each well of a 96-well dish (Corning 3610) and incubated at 37° C. in 5% CO2 overnight, cells plated to a final concentration of cells as follows:\n(§4) On day 2, compound at a maximum concentration of 5 mM is serially diluted 1:3 for a total of 8 point titration with DMSO as a control. A 1 μL aliquot of each dilution point and control is added to 249 μL growth media and 50 μL is added to a well containing cells, providing 10 μM compound at the maximum concentration point. The cells are incubated for 3 days at 37° C. in 5% CO2.\n(§5) On day 5, ATPlite 1 step Luminescence Assay System (Perkin Elmer #6016739) is brought to room temperature along with the cell cultures. ATPlite is added 25 μL to each well, shake for 2 minutes, and the cells are incubated at room temperature for 10 minutes, then luminescence is read on Safire reader. The measured luminescence correlates directly with cell number, such that the reading as a function of compound concentration is used to determine the IC50 value.\n(§6) It is understood that the results of these assays may vary as assay conditions are varied. Inhibition levels determined under the conditions described herein represent a relative activity for the compounds tested under the specific conditions employed. The cell based assays are likely to show variability due to the complexity of the system and the sensitivity thereof to any changes in the assay conditions. […] Results for compounds that are tested and show substantially no inhibition below the highest tested concentration are represented as “-” in the tables below. In some instances, the compounds were not tested in all of the assays, or assay results were not valid, as indicated by NA in the tables below."}, "CYP3A4(BQ)": {"target": "CYP3A4(BQ) (Homo sapiens, UniProt P08684)", "sequence (P08684 whole entry)": "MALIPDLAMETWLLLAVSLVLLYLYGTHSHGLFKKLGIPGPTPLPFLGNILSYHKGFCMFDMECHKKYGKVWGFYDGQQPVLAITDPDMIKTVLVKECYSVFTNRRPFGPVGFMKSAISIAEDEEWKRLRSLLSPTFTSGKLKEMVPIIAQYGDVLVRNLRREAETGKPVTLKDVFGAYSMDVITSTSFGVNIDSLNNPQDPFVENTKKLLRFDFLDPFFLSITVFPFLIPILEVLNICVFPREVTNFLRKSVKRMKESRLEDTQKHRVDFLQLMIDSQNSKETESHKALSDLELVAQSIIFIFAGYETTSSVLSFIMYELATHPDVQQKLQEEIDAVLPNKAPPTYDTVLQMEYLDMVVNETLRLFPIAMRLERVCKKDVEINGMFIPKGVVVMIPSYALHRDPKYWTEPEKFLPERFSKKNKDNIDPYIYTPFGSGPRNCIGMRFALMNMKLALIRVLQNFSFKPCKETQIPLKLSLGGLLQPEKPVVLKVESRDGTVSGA", "experiment": "CYP3A4(BQ) inhibition (fluorescent substrate)", "format": "in vitro ADME", "conditions": "read-out: Cyp IC50 3A4(BQ)", "procedure": "(§7) CYP (Cytochrome P450) enzymes are the major drug metabolizing enzymes present in the liver. The inhibition of CYP enzyme activity (IC50) for each of CYP1A2, CYP2C19, CYP2C9, CYP2D6, CYP3A4(BFC) and CYP3A4(BQ) is determined for compounds, where inhibition of metabolism of a known substrate leads to a decrease in the fluorescence of the metabolized product. The fluorescence of the product is monitored as a function of compound concentration. Compounds are dissolved in dimethyl sulfoxide to a concentration of 100 mM. These are diluted 1 μL into 82 μL of acetonitrile. […] These are then serially diluted 1:1 (160 μL to 160 μL co-factor mix) for a total of 10 points. A 10 μL aliquot of this final mixture is dispensed into 384 well assay plates and incubated for 10 minutes at 37° C. […] Assay plates are incubated at 37° C. […] The signal versus compound concentration is used to determine the IC50. The enzymes and substrates for this assay are obtained from BD Biosciences."}, "[2]": {"tested_on": "SW620 colon adenocarcinoma cells (wild-type B-RAF)", "experiment": "SW620 cell growth inhibition (ATPlite)", "format": "cell-based", "conditions": "Homo sapiens, SW-620, 72 h; SW620, 3 days incubation", "procedure": "as §1, §2, §3, §4, §5, §6"}, "[3]": {"experiment": "Relative solubility by turbidity in aqueous buffers of varying pH", "format": "physicochemical", "procedure": "As an indication of relative solubility, the turbidity of compounds in aqueous solutions is assessed. To assess possible compound properties in different physiological compartments, such as stomach, intestine, and blood, a series of aqueous buffers with varying pH is used. Thus each compound is diluted into four different physiologically relevant buffers and solution turbidity is measured by spectrophotometry.\nCompounds are dissolved at a concentration of 25 mM in dimethyl sulfoxide, then serially diluted 1:1 into a 96 well plate, diluting 10 times in pure dimethyl sulfoxide, with the final well of each row a dimethyl sulfoxide blank. In an assay plate, 99 μL of appropriate buffer is added to each well, and 1 μL of each sample dilution is added to the buffer, achieving a range of final total concentrations in aqueous solutions having different pH. The buffers used are Simulated Gastric Fluid (SGF-pH 1.5) 0.5M NaCl, pH 1.5; Simulated Intestinal fluid (SIF-pH 4.5 and pH 6.8) 0.05M NaH2PO4, pH 4.5 and 6.8; and Hepes Buffer (HEPES-pH 7.4) 10 mM HEPES, 150 mM NaCl, pH 7.4. Control compounds pyrene, estriol and propranolol HCl are also assessed. Plates are spun and then mixed for 1 minute, and the absorbance is read using a Tecan Safire II to read wavelengths in the visible range (490, 535, and 650 nm) at four locations per well, reflecting the degree of turbidity present. The average optical density for each wavelength in each well is graphed vs. compound concentration, and the concentration at which the curve crosses a threshold O.D. of 0.01 for each wavelength is reported as the endpoint turbidity assay result. The average of the three wavelengths is used to compare turbidity of compounds. Compounds are considered to have low solubility if the threshold concentration is <31.3 04, moderate solubility if the threshold concentration is 31.3 μM to 250 μM, and high solubility if the threshold concentration is >250 μM."}, "[4]": {"tested_on": "A375 melanoma cells (B-Raf V600E)", "experiment": "A375 cell growth inhibition (ATPlite)", "format": "cell-based", "conditions": "Homo sapiens, A-375, 72 h; A375, 3 days incubation", "procedure": "as §1, §2, §3, §4, §5, §6"}, "Colo205 xenograft": {"tested_on": "Colo205 xenograft", "experiment": "Colo205 xenograft mouse model, tumor growth inhibition", "format": "in vivo", "conditions": "COLO 205, 336 h, female nu/nu mice, 10 mg/kg daily for fourteen days", "procedure": "Tumor growth is monitored to approximately 100 mg size, and mice are distributed to treatment groups such that the mean tumor burden within a group is within 10% of the overall mean tumor burden. […] Mice are observed daily, with tumor burden and body weights measured twice a week. Animals with tumor burden above 1500-2000 mg and any animals in moribund condition are euthanized. The average tumor growth of vehicle control group mice is compared to the average tumor growth of the test compound mice. Percent tumor growth inhibition is calculated as 100×[(tumor growth control-tumor growth test compound)/tumor growth control]."}, "[5]": {"tested_on": "SKMEL2 melanoma cells (Ras mutation)", "experiment": "SKMEL2 cell growth inhibition (ATPlite)", "format": "cell-based", "conditions": "Homo sapiens, SK-MEL-2, 72 h; SKMEL2, 3 days incubation", "procedure": "as §1, §2, §3\nSKMEL2: 2,000 cells per well.\nas §4, §5, §6"}, "CYP3A4(BFC)": {"target": "CYP3A4(BFC) (Homo sapiens, UniProt P08684)", "sequence (P08684 whole entry)": "as above", "experiment": "CYP3A4(BFC) inhibition (fluorescent substrate)", "format": "in vitro ADME", "conditions": "read-out: Cyp IC50 3A4(BFC)", "procedure": "as §7"}}, "data": [{"molecule": "O=C(c1c(F)ccc(NS(=O)(=O)c2cccnc2)c1F)c1c[nH]c2ncc(Cl)cc12", "note": "[P-2071, Pyridine-3-sulfonic acid [3-(5-chloro-1H-pyrrolo[2,3-b]pyridine-3-carbonyl)-2,4-difluoro-phenyl]-amide]", "values": [{"measurement": "IC50", "setting": "[1]", "result": "< 1", "unit": "µM"}, {"measurement": "IC50", "setting": "CYP3A4(BQ)", "result": "< 5", "unit": "µM"}, {"measurement": "IC50", "setting": "[2]", "result": "> 10", "unit": "µM"}, {"measurement": "turbidity threshold (L, M, H) 7.4", "setting": "[3]; HEPES pH 7.4", "result": "M (moderate solubility if the threshold concentration is 31.3 μM to 250 μM)"}, {"measurement": "turbidity threshold (L, M, H) 4.5", "setting": "[3]; SIF pH 4.5", "result": "M (moderate solubility if the threshold concentration is 31.3 μM to 250 μM)"}, {"measurement": "turbidity threshold (L, M, H) 6.8", "setting": "[3]; SIF pH 6.8", "result": "M (moderate solubility if the threshold concentration is 31.3 μM to 250 μM)"}, {"measurement": "turbidity threshold (L, M, H) 1.4", "setting": "[3]; buffer pH 1.4 (SGF)", "result": "M (moderate solubility if the threshold concentration is 31.3 μM to 250 μM)"}, {"measurement": "IC50", "setting": "[4]", "result": "< 1", "unit": "µM"}, {"measurement": "inhibition in vivo at 10 mg/kg", "setting": "Colo205 xenograft", "result": 59, "unit": "%"}, {"measurement": "IC50", "setting": "[5]", "result": "> 10", "unit": "µM"}, {"measurement": "IC50", "setting": "CYP3A4(BFC)", "result": "< 5", "unit": "µM"}]}]}
